In PubChem BioAssay AID330 (DTP/NCI, 2004):
Toxic doses and inconclusive results are not listed. The calls were made as follows: active = survival T/C of 150% or more; inactive = T/C below 125% in these data.

System: P388 leukemia ip, CD2F1 mice, survival T/C
Assay: NCI In Vivo Anticancer Drug Screen. Data for tumor model P388 Leukemia (intraperitoneal) in CD2F1 (CDF1) mice
Details: endpoint: median survival time, higher = longer survival
In short: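 Mice carrying the transplanted tumor received test compound or vehicle. Survival was recorded in each group, and the value is the treated-group measurement divided by that of the vehicle-treated control group.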

[1] = dose: 12.5 mg/kg/injection, schedule: Q01DX009 (ip), vehicle: Klucel (hydroxypropylcellulose) (HPC)
[2] = dose: 25.0 mg/kg/injection, schedule: Q01DX009 (ip), vehicle: Klucel (hydroxypropylcellulose) (HPC)
[3] = dose: 60.0 mg/kg/injection, schedule: Q01DX005 (ip), vehicle: saline with Tween-80
[4] = dose: 120.0 mg/kg/injection, schedule: Q01DX005 (ip), vehicle: saline with Tween-80
[5] = dose: 240.0 mg/kg/injection, schedule: Q01DX005 (ip), vehicle: saline with Tween-80
[6] = dose: 100.0 mg/kg/injection, schedule: Q01DX001 (ip), vehicle: Klucel (hydroxypropylcellulose) (HPC)
[7] = dose: 200.0 mg/kg/injection, schedule: Q01DX001 (ip), vehicle: Klucel (hydroxypropylcellulose) (HPC)
[8] = dose: 50.0 mg/kg/injection, schedule: Q01DX009 (ip), vehicle: saline with Tween-80
[9] = dose: 100.0 mg/kg/injection, schedule: Q01DX009 (ip), vehicle: saline with Tween-80
[10] = dose: 200.0 mg/kg/injection, schedule: Q01DX009 (ip), vehicle: saline with Tween-80
[11] = dose: 50.0 mg/kg/injection, schedule: Q01DX009 (ip), vehicle: saline
[12] = dose: 100.0 mg/kg/injection, schedule: Q01DX009 (ip), vehicle: saline
[13] = dose: 25.0 mg/kg/injection, schedule: Q01DX009 (ip), vehicle: saline with Tween-80
[14] = dose: 100.0 mg/kg/injection, schedule: Q04DX003 (ip), vehicle: saline with Tween-80
[15] = dose: 200.0 mg/kg/injection, schedule: Q04DX003 (ip), vehicle: saline with Tween-80
[16] = dose: 400.0 mg/kg/injection, schedule: Q04DX003 (ip), vehicle: saline with Tween-80
[17] = dose: 100.0 mg/kg/injection, schedule: Q04DX002 (ip), vehicle: Klucel (hydroxypropylcellulose) (HPC)
[18] = dose: 50.0 mg/kg/injection, schedule: Q01DX009 (ip), vehicle: Klucel (hydroxypropylcellulose) (HPC)
[19] = dose: 100.0 mg/kg/injection, schedule: Q01DX009 (ip), vehicle: Klucel (hydroxypropylcellulose) (HPC)
[20] = dose: 200.0 mg/kg/injection, schedule: Q01DX009 (ip), vehicle: Klucel (hydroxypropylcellulose) (HPC)

Measured: T/C

N#CSc1ccc2nc(N)sc2c1
inactive: dose: 6.25 mg/kg/injection, schedule: Q01DX009 (ip), vehicle: Klucel (hydroxypropylcellulose) (HPC) 111 % of control | [1] 111 % of control | [2] 104 % of control

Cc1c(-c2ccccc2)nc(N)n1C
inactive: dose: 5.0 mg/kg/injection, schedule: Q04DX002 (ip), vehicle: saline 100 % of control | dose: 10.0 mg/kg/injection, schedule: Q04DX002 (ip), vehicle: saline 99 % of control | dose: 20.0 mg/kg/injection, schedule: Q04DX002 (ip), vehicle: saline 96 % of control

COc1ccc(/C=C/Cc2cc3c(cc2O)OCO3)cc1
inactive: [3] 104 % of control | [4] 101 % of control | [5] 101 % of control

O=[N+]([O-])c1ccc(CS(=O)(=O)c2cccs2)o1
inactive: dose: 50.0 mg/kg/injection, schedule: Q01DX009 (ip), vehicle: suspension in saline 106 % of control | dose: 100.0 mg/kg/injection, schedule: Q01DX009 (ip), vehicle: suspension in saline 100 % of control

COC(=O)c1ccccc1N=Nc1ccc(N(CCCl)CCCl)cc1
inactive: dose: 50.0 mg/kg/injection, schedule: Q01DX001 (ip), vehicle: Klucel (hydroxypropylcellulose) (HPC) 112 % of control | [6] 108 % of control | [7] 113 % of control

CC(=O)C(C)(CC#N)C(CC=O)CCC#N (centres undefined)
inactive: [3] 111 % of control

O=C1C=C(c2ccccc2)C(c2ccccc2)C1 (centres undefined)
inactive: [8] 89 % of control | [9] 93 % of control | [10] 93 % of control | dose: 400.0 mg/kg/injection, schedule: Q01DX009 (ip), vehicle: saline with Tween-80 93 % of control

CCNC(=O)OOC(C)(C)C
inactive: [11] 102 % of control | [12] 101 % of control

COC(=O)c1c[n+]([O-])ccc1OC
inactive: dose: 50.0 mg/kg/injection, schedule: Q01DX005 (ip), vehicle: saline 102 % of control | dose: 100.0 mg/kg/injection, schedule: Q01DX005 (ip), vehicle: saline 106 % of control | dose: 200.0 mg/kg/injection, schedule: Q01DX005 (ip), vehicle: saline 102 % of control

C[C@H]1C[C@H]2[C@@H]3CC[C@](O)(C(=O)CO)[C@@]3(C)C[C@H](O)[C@]2(F)[C@@]2(C)C=CC(=O)C=C12
inactive: dose: 12.5 mg/kg/injection, schedule: Q01DX009 (ip), vehicle: saline with Tween-80 95 % of control | [13] 104 % of control | [8] 104 % of control | [14] 109 % of control | [15] 109 % of control | [16] 90 % of control

Cc1cc2c(cc1C)NC1=C(N2)OC(c2ccc(C3OC4=C(Nc5cc(C)c(C)cc5N4)C3=O)cc2)C1=O (centres undefined)
inactive: dose: 60.0 mg/kg/injection, schedule: Q01DX005 (ip), vehicle: Klucel (hydroxypropylcellulose) (HPC) 92 % of control | dose: 120.0 mg/kg/injection, schedule: Q01DX005 (ip), vehicle: Klucel (hydroxypropylcellulose) (HPC) 92 % of control | dose: 240.0 mg/kg/injection, schedule: Q01DX005 (ip), vehicle: Klucel (hydroxypropylcellulose) (HPC) 93 % of control

C[n+]1ccn2cc(S(=O)(=O)[O-])ccc21
inactive: dose: 3.12 mg/kg/injection, schedule: Q01DX009 (ip), vehicle: saline 92 % of control | dose: 6.25 mg/kg/injection, schedule: Q01DX009 (ip), vehicle: saline 95 % of control

CCSC(=S)N(CC)c1nc2ccccc2o1
inactive: dose: 100.0 mg/kg/injection, schedule: Q04DX002 (ip), vehicle: saline with Tween-80 105 % of control | dose: 200.0 mg/kg/injection, schedule: Q04DX002 (ip), vehicle: saline with Tween-80 113 % of control | dose: 400.0 mg/kg/injection, schedule: Q04DX002 (ip), vehicle: saline with Tween-80 122 % of control

O=C(N/C(=C\c1ccc2c(c1)OCO2)c1nc2ccccc2s1)c1ccccc1
inactive: [3] 107 % of control | [4] 121 % of control | [5] 123 % of control

CC(Br)C(C)(C)OO (centres undefined)
inactive: [6] 101 % of control | [7] 95 % of control | dose: 400.0 mg/kg/injection, schedule: Q01DX001 (ip), vehicle: Klucel (hydroxypropylcellulose) (HPC) 100 % of control

COc1c(OC)c([N+](=O)[O-])c2c(c1[N+](=O)[O-])COC2=O
inactive: dose: 50.0 mg/kg/injection, schedule: Q01DX005 (ip), vehicle: Klucel (hydroxypropylcellulose) (HPC) 104 % of control | dose: 100.0 mg/kg/injection, schedule: Q01DX005 (ip), vehicle: Klucel (hydroxypropylcellulose) (HPC) 103 % of control

COC(=O)n1oc2ccccc2c1=O
inactive: [17] 99 % of control | dose: 200.0 mg/kg/injection, schedule: Q04DX002 (ip), vehicle: Klucel (hydroxypropylcellulose) (HPC) 101 % of control | dose: 400.0 mg/kg/injection, schedule: Q04DX002 (ip), vehicle: Klucel (hydroxypropylcellulose) (HPC) 101 % of control

Cn1c(=O)n2n(c1=O)C1C3C4C5C3C13COCC53C42 (centres undefined)
inactive: [18] 97 % of control | [19] 97 % of control | [20] 100 % of control

COc1cc2c(cc1O)Cc1c-2[n+](C)cc2cc(OC)c(OC)cc12
inactive: dose: 6.25 mg/kg/injection, schedule: Q01DX005 (ip), vehicle: Klucel (hydroxypropylcellulose) (HPC) 117 % of control | dose: 12.5 mg/kg/injection, schedule: Q01DX005 (ip), vehicle: Klucel (hydroxypropylcellulose) (HPC) 109 % of control | dose: 25.0 mg/kg/injection, schedule: Q01DX005 (ip), vehicle: Klucel (hydroxypropylcellulose) (HPC) 115 % of control | [17] 119 % of control

Cn1cc(/C=C/C(=O)c2ccccc2[N+](=O)[O-])c2ccccc21
inactive: [3] 95 % of control | [4] 89 % of control | [5] 89 % of control

NC(=S)N/N=C/c1cn(-c2ccccc2[N+](=O)[O-])cn1
inactive: dose: 100.0 mg/kg/injection, schedule: Q04DX003 (ip), vehicle: Klucel (hydroxypropylcellulose) (HPC) 103 % of control | dose: 200.0 mg/kg/injection, schedule: Q04DX003 (ip), vehicle: Klucel (hydroxypropylcellulose) (HPC) 90 % of control

Cc1ccc(NS(=O)(=O)N2CCCCC2)cc1
inactive: [1] 106 % of control | [2] 95 % of control | [18] 98 % of control | [19] 116 % of control | [20] 115 % of control | dose: 400.0 mg/kg/injection, schedule: Q01DX009 (ip), vehicle: Klucel (hydroxypropylcellulose) (HPC) 113 % of control

Nc1ncnn1Cc1ccccc1
inactive: [13] 104 % of control | [8] 100 % of control | [9] 101 % of control | [10] 102 % of control

CCCC(=O)Nc1ncc([N+](=O)[O-])s1
inactive: [8] 95 % of control | [9] 100 % of control | [10] 90 % of control

Cc1nc2c(ncn2C2OC(CO)C(O)C2O)c(=O)[nH]1 (centres undefined)
inactive: dose: 50.0 mg/kg/injection, schedule: Q04DX003 (ip), vehicle: saline with Tween-80 96 % of control | [14] 101 % of control | [15] 109 % of control | [16] 111 % of control

CNC(=S)N(C)CCCCN(C)C(=S)NC
inactive: [11] 102 % of control | [12] 105 % of control | dose: 200.0 mg/kg/injection, schedule: Q01DX009 (ip), vehicle: saline 100 % of control

CC12CCC3(CC(=O)C1CCC2O)OCCO3 (centres undefined)
inactive: [18] 107 % of control | [19] 103 % of control | [20] 116 % of control
